# Source: publication PMC8795745, “A GSH/CB Dual-Controlled Self-Assembled Nanomedicine for High-Efficacy Doxorubicin-Resistant Breast Cancer Therapy” (Frontiers in Pharmacology, 2022)
# Bridge positions count the residues as written; N and C are the ends. Square brackets hold non-standard residues; d marks the D form. Peptide text beside a SMILES is read from it. * marks the point of attachment. Acetyl(2-naphthyl) = O=C(Cc1ccc2ccccc2c1)*
# What was measured:
# [1] = target: T1, CB enzyme (cathepsin B) (Homo sapiens, UniProt P07858); test: Cathepsin B conversion of linear-1a into linear-1b (LC-MS); format: biochemical; details: after GSH 8 mM for 12 h, then CB 1 U/mL, 37 °C, PBS pH 7.4; at 20 h; LC-MS peak area; mean, n=3
# T1 construct: purchased Sigma-Aldrich (St. Louis, MO, USA)
# Description: Molecular self-assembly was performed as described previously.^[1] Briefly, the cyclic-1a was diluted into the phosphate-buffered saline (PBS; pH 7.4) to a final concentration of 1600 µM and incubated at 37 °C. The GSH (8 mM) was then added to the above solution for 12 h at 37 °C to trigger the first step of self-assembly. Afterward, cathepsin B was added to the solution for 12 h at 37 °C to trigger the second step of self-assembly (1 U/mL).
# 2 mL of the sample prepared by part 3 were adding GSH (8 mM) for 12 h, and then added 1 U/mL of cathepsin B, 100 µL of each sample was collected at each time point and 100 µL methanol was added to terminate the reaction. The method of detection was similar to part 3.1.
# [2] = system: MCF-7/DOX cells; test: MTT assay, MCF-7/DOX cells; format: cell-based; details: Homo sapiens, MCF7-DOX, mean ± SD, n=3
# Description: (§1) MTT assay was performed as described previously.^[6^] Briefly, the cells (5 × 10^3 cells/well) were seeded in 96-well culture plates (Coring) and incubated overnight. Then cells were exposed to various concentrations of cyclic-1a and incubated at 37 °C for 72 h. After that, MTT stock solution (0.5 mg/mL) was added into each well and cultured for additional 4 h. The MTT treated cells were […] with 150 μL of DMSO. The absorbance in each individual well was measured by using a microplate spectrophotometer at […] (SpectraMax M2e, Molecular Devices Inc. USA).
# [3] = Body weight and histological examination of organs in tumor-bearing mice; format: in vivo, BALB/c nude mice; details: cyclic-1a 20 and 60 mg/kg
# Description: Female BALB/c nude mice (6 weeks old) were purchased from the Experimental Animal Center of Yangzhou University. The experiments involving animals were approved by the Animal Ethics Committee of China Pharmaceutical University (Ethic approval number: 2020-07-003). In vivo anticancer activity assay was performed as described previously.^[9^] Briefly, MCF-7/DOX cells (200 μL, 1 × 10^7 cells) were implanted into the right mammary fat pad of nude mice. Once tumors grew to 80-100 mm^3, mice were randomly assigned into four groups and treated intraperitoneally with vehicle, cyclic-1a (20 mg/kg), cyclic-1a (60 mg/kg) or DOX (5 mg/kg) every 3 days for a total of six times. Tumor volume and body weight were measured every 3 days. Tumor volume was calculated using the formula (c × c × d)/2 (c, the smallest diameter; d, the largest diameter).
# Immunohistochemical stains against Ki67 and cleaved caspase 3 were performed using immunohistochemistry kit (KeyGen, Nanjing, China) according to the manufacturer’s instructions. Mouse organs (heart, liver, spleen, lung and kidney) tissues were fixed in 4% paraformaldehyde at 4 °C for 48 h, and then embedded in paraffin wax, sectioned (5 µm) and processed for H&E staining. Inverted fluorescence microscope was used to photograph all sections.
# [4] = system: MCF-7 cells; format: cell-based
# [5] = system: MCF-7 cells; format: cell-based; remark: listed apart in the source
# Description: as §1
structure (smiles),measurement,setting,value
N=C(N)NCCC[C@H](NC(=O)CNC(=O)CNC(=O)[C@H](CS)NC(=O)[C@@H](CCCCN)NC(=O)[C@@H](Cc1ccc(O)cc1)NC(=O)[C@@H](Cc1ccccc1)NC(=O)[C@@H](Cc1ccccc1)NC(=O)[C@H](CS)NC(=O)Cc1ccc2ccccc2c1)C(=O)N[C@@H](CCCNC(=N)N)C(=O)NCC(=O)N[C@@H](CCCCN)C(=O)NCC(=O)NCC(=O)N[C@@H](Cc1c[nH]cn1)C(=O)N[C@@H](Cc1c[nH]cn1)C(=O)N[C@@H](Cc1c[nH]cn1)C(=O)N[C@@H](CCCNC(=N)N)C(=O)N[C@@H](CCCNC(=N)N)C(=O)NCC(=O)N[C@@H](CC(=O)O)C(=O)N[C@@H](CO)C(=O)O [linear-1a] ({Acetyl(2-naphthyl)}-C[dF][dF][dY][dK]CGGRRGKGGHHHRRGDS-OH),linear-1a converted into linear-1b,[1],more than 90%
"COc1cccc2c1C(=O)c1c(O)c3c(c(O)c1C2=O)C[C@@](O)(C(=O)CO)C[C@@H]3O[C@H]1C[C@H](N)[C@H](O)[C@H](C)O1 [doxorubicin, Doxorubicin]",IC50,[2],83.3 ± 6.13 µM
same,body weight of mice,"[3]; DOX 5 mg/kg, intraperitoneally every 3 days, six times, n=6",gradually increased throughout the experiments except for the DOX-treated group
same,pathological lesions in organs (H&E),"[3]; heart, liver, spleen, lung and kidney, DOX 5 mg/kg intraperitoneally",lesions of the heart and kidney were detected
N=C(N)NCCC[C@H](NC(=O)CNC(=O)CNC(=O)[C@@H]1CSSC[C@H](NC(=O)Cc2ccc3ccccc3c2)C(=O)N[C@H](Cc2ccccc2)C(=O)N[C@H](Cc2ccccc2)C(=O)N[C@H](Cc2ccc(O)cc2)C(=O)N[C@H](CCCCN)C(=O)N1)C(=O)N[C@@H](CCCNC(=N)N)C(=O)NCC(=O)N[C@@H](CCCCN)C(=O)NCC(=O)NCC(=O)N[C@@H](Cc1c[nH]cn1)C(=O)N[C@@H](Cc1c[nH]cn1)C(=O)N[C@@H](Cc1c[nH]cn1)C(=O)N[C@@H](CCCNC(=N)N)C(=O)N[C@@H](CCCNC(=N)N)C(=O)NCC(=O)N[C@@H](CC(=O)O)C(=O)N[C@@H](CO)C(=O)O [cyclic-1a] ({Acetyl(2-naphthyl)}-C[dF][dF][dY][dK]CGGRRGKGGHHHRRGDS-OH; disulfide 1-6),"cellular uptake ability, MCF-7 cells",[4],strong cellular uptake ability
same,cytotoxicity to MCF-7 cells (MTT),[5],no obvious cytotoxicity
